The values that follow come from ChEMBL document CHEMBL1201862, “PubChem BioAssay data set” (2004).

As usually defined, the EC50 is the concentration needed to bring the measured effect to its halfway point. Usually IC50 stands for the concentration that gives 50% inhibition.

The structures appear in SMILES notation. The source made the active and inactive calls. Rule as the data show it, for most assays here: actives have a measured EC50 and inactives only a lower limit. Some results are limits rather than exact numbers.

For assay [1], the target named is T1, Protein RecA (Mycobacterium tuberculosis, UniProt P9WHJ3).
T1 sequence (P9WHJ3 whole entry): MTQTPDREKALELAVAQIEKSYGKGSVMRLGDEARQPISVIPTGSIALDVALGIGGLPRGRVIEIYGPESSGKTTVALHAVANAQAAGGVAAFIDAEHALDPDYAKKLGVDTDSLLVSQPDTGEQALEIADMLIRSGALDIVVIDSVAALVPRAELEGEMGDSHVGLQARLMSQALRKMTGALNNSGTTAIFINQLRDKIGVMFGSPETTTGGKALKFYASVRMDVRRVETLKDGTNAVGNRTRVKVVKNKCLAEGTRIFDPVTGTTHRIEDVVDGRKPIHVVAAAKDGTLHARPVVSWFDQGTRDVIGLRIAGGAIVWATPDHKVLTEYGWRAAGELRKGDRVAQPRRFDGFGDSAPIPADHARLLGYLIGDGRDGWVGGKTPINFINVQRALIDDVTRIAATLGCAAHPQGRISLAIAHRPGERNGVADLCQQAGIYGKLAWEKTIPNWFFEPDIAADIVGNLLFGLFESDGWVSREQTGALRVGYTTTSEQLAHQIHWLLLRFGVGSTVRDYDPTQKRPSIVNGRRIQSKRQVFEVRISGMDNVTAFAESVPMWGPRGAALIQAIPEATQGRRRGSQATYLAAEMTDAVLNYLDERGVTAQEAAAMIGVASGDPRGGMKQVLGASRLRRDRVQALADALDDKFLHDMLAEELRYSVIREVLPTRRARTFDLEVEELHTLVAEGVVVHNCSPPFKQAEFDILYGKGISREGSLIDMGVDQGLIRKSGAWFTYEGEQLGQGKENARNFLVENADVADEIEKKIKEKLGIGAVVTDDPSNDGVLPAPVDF
Description: Fluorescence Cell-Free Homogeneous Dose Retest to Identify Inhibitors of RecA-Intein Splicing Activity. [Related pubchem assays (depositor defined):AID2097, AID2223, AID489010, AID492950]. The assay is classed as functional.

Assay [2] concerns the target T2, Apoptotic protease-activating factor 1 (Homo sapiens, UniProt O14727).
T2 sequence (O14727 whole entry): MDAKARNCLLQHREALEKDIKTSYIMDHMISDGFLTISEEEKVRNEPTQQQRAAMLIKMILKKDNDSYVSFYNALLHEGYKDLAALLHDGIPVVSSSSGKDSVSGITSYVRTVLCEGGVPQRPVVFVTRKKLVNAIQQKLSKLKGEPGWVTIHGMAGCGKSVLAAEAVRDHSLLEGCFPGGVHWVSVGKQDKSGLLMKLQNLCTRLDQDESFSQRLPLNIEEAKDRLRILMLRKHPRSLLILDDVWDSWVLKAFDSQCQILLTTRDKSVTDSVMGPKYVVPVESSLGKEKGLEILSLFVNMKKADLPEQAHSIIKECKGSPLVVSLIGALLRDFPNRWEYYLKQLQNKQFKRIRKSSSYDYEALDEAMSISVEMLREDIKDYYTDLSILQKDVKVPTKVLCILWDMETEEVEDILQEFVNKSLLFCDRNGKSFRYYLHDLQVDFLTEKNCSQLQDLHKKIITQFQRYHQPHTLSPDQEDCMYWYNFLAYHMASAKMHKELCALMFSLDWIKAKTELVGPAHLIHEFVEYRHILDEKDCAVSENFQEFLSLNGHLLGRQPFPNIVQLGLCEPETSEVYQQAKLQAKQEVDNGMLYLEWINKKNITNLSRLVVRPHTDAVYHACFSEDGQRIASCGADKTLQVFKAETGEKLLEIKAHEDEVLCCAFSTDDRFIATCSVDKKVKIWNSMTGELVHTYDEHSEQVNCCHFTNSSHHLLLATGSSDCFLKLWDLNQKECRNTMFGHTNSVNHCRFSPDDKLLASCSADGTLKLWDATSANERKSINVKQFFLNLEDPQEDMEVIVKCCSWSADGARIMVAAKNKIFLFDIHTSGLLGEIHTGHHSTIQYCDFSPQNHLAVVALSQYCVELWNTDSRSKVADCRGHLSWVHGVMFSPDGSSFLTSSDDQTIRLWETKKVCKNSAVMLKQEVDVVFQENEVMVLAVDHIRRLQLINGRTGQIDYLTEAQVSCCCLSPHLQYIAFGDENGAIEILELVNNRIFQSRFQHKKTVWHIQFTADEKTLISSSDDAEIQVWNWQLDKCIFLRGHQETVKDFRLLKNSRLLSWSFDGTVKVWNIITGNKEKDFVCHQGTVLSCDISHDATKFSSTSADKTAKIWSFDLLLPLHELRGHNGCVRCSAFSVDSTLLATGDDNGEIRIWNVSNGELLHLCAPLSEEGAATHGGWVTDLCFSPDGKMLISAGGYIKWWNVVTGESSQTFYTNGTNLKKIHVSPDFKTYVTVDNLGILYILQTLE
The class given is functional.

The target of assay [3] is T3, Streptokinase A (Streptococcus pyogenes serotype M1, UniProt P10520).
T3 sequence (P10520 whole entry): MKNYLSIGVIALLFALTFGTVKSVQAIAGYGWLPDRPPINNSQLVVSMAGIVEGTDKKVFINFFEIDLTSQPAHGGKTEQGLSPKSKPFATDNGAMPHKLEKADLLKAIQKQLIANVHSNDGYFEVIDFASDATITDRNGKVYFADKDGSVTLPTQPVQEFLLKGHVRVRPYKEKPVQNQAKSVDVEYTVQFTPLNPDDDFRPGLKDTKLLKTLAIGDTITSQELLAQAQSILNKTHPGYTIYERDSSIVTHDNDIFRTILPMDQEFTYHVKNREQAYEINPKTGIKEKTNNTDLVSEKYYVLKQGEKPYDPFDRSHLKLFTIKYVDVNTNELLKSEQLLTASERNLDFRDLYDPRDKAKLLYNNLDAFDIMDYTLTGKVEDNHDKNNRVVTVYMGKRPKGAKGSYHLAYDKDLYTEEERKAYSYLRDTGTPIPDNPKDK
Description: viability-normalized secreted streptokinase activity reduction – plasminogen activation absorbance, OD405, dose response (AID 1914).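 Also: secreted streptokinase activity via plasminogen activation per viability signal from cell pellet.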 The assay is classed as functional, Streptococcus pyogenes M1 GAS.

Assay [4] has as its system Streptococcus sp. 'group A'. The assay is described as follows: Streptococcus pyogenes SK(-)GAS viability under kanamycin – luminescence, BacTiterGlo, confirmation, counter-screen for streptokinase expression inhibitor project, dose response (AID 1900). The assay is classed as functional, organism-based. In general terms: The purpose of a counterscreen is to sort out artefacts and off-target activity.

With `O=C1C(Cl)=C(NCc2cccnc2)C(=O)c2ccccc21`, the EC50 in assay [1] is 2.17 µM (active). In assay [2], the IC50 was 10.1 µM (active).

Consider `Nc1ccc(Br)c2cccnc12`, for which the IC50 in assay [2] is 39.1 µM (active).

Turning to `CN(C)c1ncc(C2=C(Cl)C(=O)C(N3CCCC3)=C(Cl)C2=O)s1`, the EC50 in assay [1] is 3.81 µM (active); in assay [3], > 150 µM (not active); in assay [4] it was 24.5 µM (active). In assay [2], the IC50 was 25 µM (active).

As to `Cc1ccc(C(=O)c2c(C)oc3c2C(=O)C(=O)c2ccccc2-3)cc1`, the EC50 is > 150 µM (not active) in assay [3] and 0.566 µM (active) in assay [4]. In assay [2], the IC50 is 8.09 µM (active).

Consider `O=C1C(O)=C/C(=N\c2ccccc2O)c2ccccc21`, for which the EC50 in assay [1] is 12.3 µM (active); in assay [3] it was 132 µM (active); in assay [4], 3.4 µM (active). Besides, the IC50 in assay [2] was 2.61 µM (active).

Regarding `Cc1ccc(Nc2cc(C)nn2-c2nc(C)cc(O)n2)cc1`, the EC50 is 61.4 µM (active) in assay [1] and < 0.06 µM (active) in assay [4].
